# Key:
# Format in all cases: cell-based
# [1] = tested on: HIV-1-GFP; assay: Anti-HIV-1 activity in U937 cells transduced with wt SAMHD1 or HD206-7AA mutant
# Protocol: Antiviral assays were further performed in monocytoid cells transduced with YFP-expressing VLPs containing WT SAMHD1, HD206-7AA or Vpx. Briefly, U937 cells (6 × 10^5 cells/mL) were transduced with WT SAMHD1-YFP or HD206-7AA-YFP VLPs by spinoculation at 800 × g for 90 min in the presence of 1 μg/mL polybrene. Similarly, THP-1 cells (6 × 10^5 cells/mL) were transduced with Vpx-YFP VLPs by spinoculation at 800 × g for 90 min in the presence of 1 μg/mL polybrene. Cells were incubated at 37 °C in 5% CO2 and after 72 h, PMA^+ cells (6 × 10^5 cells/mL) were treated with 100 nM PMA and PMA^− cells (7.5 × 10^4 cells/mL) were left untreated. Cells were then incubated at 37 °C in 5% CO2 for 48 h. Nucleoside analogues were added at increasing concentrations (0–200 μM; except CFB, 0–1.6 μM) and cells were further incubated for 48 h. PMA^− cells were then infected with HIV-1-GFP by spinoculation at 800 × g for 90 min in the presence of 1 μg/mL polybrene, PMA^+ cells were infected with HIV-1-GFP in the presence of 1 μg/mL polybrene only. Cells were incubated for 72 h at 37 °C in 5% CO2 and then analysed by two-colour flow cytometry using a Fortessa X20 analyser (BD Biosciences). Data were analysed using the FlowJo software suite.
# (§1) The cytotoxic concentration of nucleoside analogue that inhibits cell viability by 50% (CC50) and the effective concentration of nucleoside analogue that inhibits infection of cells by 50% (EC50) were calculated for each independent experiment by non-linear regression using GraphPad Prism v6.00 for Windows (GraphPad Software, San Diego, CA). Non-ambiguous values were subjected to a replicate test to calculate confidence intervals of 95% (95% CI). CC50 and EC50 values were determined for at least two independent experiments for each nucleoside analogue and a selectivity index (SI) also calculated, (SI = CC50/EC50). EC50 values for each replicate were used to perform an unpaired two-tailed t-test to determine significant differences between U937 cells expressing SAMHD1 wt or HD206-7AA mutant and THP-1 cells expressing Vpx or untransduced cells. P values of <0.005 were considered statistically significant.
# [2] = Cytotoxicity, live cells by flow cytometry, H9 cells; settings: human
# Protocol: (§2) H9, Jurkat and undifferentiated U937 and THP-1 (PMA^−) cells (6 × 10^5 cells/mL) were treated with increasing concentrations of nucleoside analogues (0–200 μM; except CFB, 0–1.6 μM) and incubated at 37 °C in 5% CO2 for 48 h. Medium was then replaced and cells were further incubated for 72 h. Non-dividing U937 and THP-1 (PMA^+) cells (6 × 10^5 cells/mL) were differentiated by addition of 100 nM phorbol-12-myristate-13-acetate (PMA^+) for 48 h and then treated with increasing concentrations of nucleoside analogues as described above. The percentage of live cells was determined by flow cytometry using Live/Dead fixable blue-fluorescent dyes (Invitrogen) and a Fortessa X20 analyser (BD Biosciences). Data were analysed using the FlowJo software suite.
# as §1
# [3] = tested on: U937 cells; assay: Cytotoxicity, live cells by flow cytometry, U937 cells (PMA−/PMA+); settings: human, 48 h
# Protocol: as §2, §1
# [4] = as above; settings: human
# Protocol: as §2, §1
# [5] = tested on: HIV-1-GFP; assay: microbe, parasite or virus in culture
# Protocol: H9 and Jurkat cells (6 × 10^5 cells/mL) were treated with increasing concentrations of nucleoside analogues (0–200 μM; except CFB, 0–1.6 μM) and incubated for 4 h at 37 °C in 5% CO2. Cells were then infected with HIV-1-GFP by spinoculation at 800 × g for 90 min in the presence of 1 μg/mL polybrene, and further incubated at 37 °C in 5% CO2 for 72 h. Undifferentiated U937 and THP-1 (PMA^−) cells (6 × 10^5 cells/mL) were treated with increasing concentrations of nucleoside analogues (0–200 μM; except CFB, 0–1.6 μM) and incubated at 37 °C in 5% CO2 for 48 h. Cells were then infected with HIV-1-GFP by spinoculation at 800 × g for 90 min in the presence of 1 μg/mL polybrene, and further incubated at 37 °C in 5% CO2 for 72 h. Non-dividing U937 and THP-1 (PMA^+) cells (6 × 10^5 cells/mL) were differentiated by addition of 100 nM PMA (PMA^+) for 48 h and treated with increasing concentrations of nucleoside analogues as described above. Cells were then infected with HIV-1-GFP in the presence of 1 μg/mL polybrene and further incubated at 37 °C in 5% CO2 for 72 h. The percentage of GFP^+cells was determined by one-colour flow cytometry using a Fortessa X20 analyser (BD Biosciences) and the data analysed using the FlowJo software suite.
# Non-ambiguous values were subjected to a replicate test to calculate confidence intervals of 95% (95% CI). CC50 and EC50 values were determined for at least two independent experiments for each nucleoside analogue and a selectivity index (SI) also calculated, (SI = CC50/EC50). EC50 values for each replicate were used to perform an unpaired two-tailed t-test to determine significant differences between U937 cells expressing SAMHD1 wt or HD206-7AA mutant and THP-1 cells expressing Vpx or untransduced cells. P values of <0.005 were considered statistically significant.
# [6] = in vitro; settings: human
# Protocol: as §2, §1
# [7] = Human immunodeficiency virus 1, U-937, read-out: EC50 [95% CI], U937 PMA+, HD206/7AA+ population
# [8] = Human immunodeficiency virus 1, U-937, read-out: EC50 [95% CI], U937 PMA+, SAMHD1+ population
# [9] = Human immunodeficiency virus 1, U-937, read-out: EC50 [95% CI], U937 PMA−, HD206/7AA+ population
# [10] = Human immunodeficiency virus 1, U-937, read-out: EC50 [95% CI], U937 PMA−, SAMHD1+ population
# [11] = U937 PMA−, HD206/7AA+ population
# [12] = Human immunodeficiency virus 1, THP-1, read-out: EC50 [95% CI], THP1 PMA+
# [13] = Human immunodeficiency virus 1, THP-1, read-out: EC50 [95% CI], THP1 PMA−
# [14] = Human immunodeficiency virus 1, U-937, read-out: EC50 [95% CI], U937 PMA+
# [15] = Human immunodeficiency virus 1, U-937, read-out: EC50 [95% CI], U937 PMA−
smiles,measurement,setting,value
"Nc1nc2c(ncn2COCCO)c(=O)[nH]1 [ACV, Acycloguanosine]",EC50,[1]; [7],50900 nM
same,EC50,[1]; [8],652 nM
same,EC50,[1]; [9],> 200000 nM
same,EC50,[1]; [10],> 200000 nM
same,Fold (EC50 HD206/7AA vs SAMHD1),[1]; U937 PMA+,78 fold
same,EC50 [95% CI],[1]; [11],no anti-HIV-1 activity
same,EC50 [95% CI],"[1]; U937 PMA−, SAMHD1+ population",no anti-HIV-1 activity
same,CC50 at 48 h,[2],> 200000 nM
same,CC50,[3],> 200000 nM
same,CC50 at 48 h,[4],> 200000 nM
same,EC50,[5]; [12],657 nM
same,EC50,[5]; [13],> 200000 nM
same,EC50,[5]; [14],52200 nM
same,EC50,[5]; [15],> 200000 nM
same,"SI, selectivity index CC50/EC50",[5]; THP-1 PMA+,> 304
same,"SI, selectivity index CC50/EC50",[5]; U937 PMA+,> 4
"Nc1nc(O)c2ncn(COC(CO)CO)c2n1 [GCV, 2′-Nor-2′-deoxyguanosine]",EC50,[1]; [7],> 200000 nM
same,EC50,[1]; [8],876 nM
same,EC50,[1]; [9],> 200000 nM
same,EC50,[1]; [10],> 200000 nM
same,EC50 [95% CI],[1]; [11],no anti-HIV-1 activity
same,EC50 [95% CI],"[1]; U937 PMA−, SAMHD1+ population",no anti-HIV-1 activity
same,CC50 at 48 h,[2],> 200000 nM
same,CC50,[3],> 200000 nM
same,CC50 at 48 h,[4],> 200000 nM
same,EC50,[5]; [12],367 nM
same,EC50,[5]; [13],> 200000 nM
same,EC50,[5]; [14],> 200000 nM
same,EC50,[5]; [15],> 200000 nM
same,"SI, selectivity index CC50/EC50",[5]; THP-1 PMA+,> 545
"Cc1ccnc2c1NC(=O)c1cccnc1N2C1CC1 [NVP, Nevirapine]",EC50,[1]; [7],145 nM
same,EC50,[1]; [8],97 nM
same,EC50,[1]; [9],124 nM
same,EC50,[1]; [10],112 nM
same,Fold (EC50 HD206/7AA vs SAMHD1),[1]; U937 PMA+,1 fold
same,Fold (EC50 HD206/7AA vs SAMHD1),[1]; U937 PMA−,1 fold
same,CC50 at 48 h,"[2]; H9 cells, read-out: CC50",> 200000 nM
same,CC50 at 48 h,"[4]; PMA-differentiated, non-dividing U937 cells (PMA+), U937 PMA+, read-out: CC50",> 200000 nM
same,CC50 at 48 h,"[4]; undifferentiated U937 cells (PMA−), U937 PMA−, read-out: CC50",> 200000 nM
same,EC50,[5]; [12],219 nM
same,EC50,[5]; [13],369 nM
same,EC50,[5]; [14],118 nM
same,EC50,[5]; [15],505 nM
same,"SI, selectivity index CC50/EC50",[5]; THP-1 PMA+,> 913
same,"SI, selectivity index CC50/EC50",[5]; THP-1 PMA−,> 542
same,"SI, selectivity index CC50/EC50",[5]; U937 PMA+,> 1695
same,"SI, selectivity index CC50/EC50",[5]; U937 PMA−,> 396
"Cc1nnc(C(=O)NC(C)(C)c2nc(C(=O)NCc3ccc(F)cc3)c(O)c(=O)n2C)o1 [RAL, Raltegravir]",EC50,[1]; [7],75 nM
same,EC50,[1]; [8],70 nM
same,EC50,[1]; [9],12 nM
same,EC50,[1]; [10],11 nM
same,Fold (EC50 HD206/7AA vs SAMHD1),[1]; U937 PMA+,1 fold
same,Fold (EC50 HD206/7AA vs SAMHD1),[1]; U937 PMA−,1 fold
same,CC50 at 48 h,"[2]; H9 cells, read-out: CC50",> 200000 nM
same,CC50 at 48 h,"[4]; U937 PMA+, read-out: CC50",> 200000 nM
same,CC50 at 48 h,"[4]; U937 PMA−, read-out: CC50",> 200000 nM
same,EC50,[5]; [12],37 nM
same,EC50,[5]; [13],44 nM
same,EC50,[5]; [14],63 nM
same,EC50,[5]; [15],13 nM
same,"SI, selectivity index CC50/EC50",[5]; THP-1 PMA+,> 5405
same,"SI, selectivity index CC50/EC50",[5]; THP-1 PMA−,> 4545
same,"SI, selectivity index CC50/EC50",[5]; U937 PMA+,> 3175
same,"SI, selectivity index CC50/EC50",[5]; U937 PMA−,> 15385
"Cc1cn([C@H]2C=C[C@@H](CO)O2)c(=O)[nH]c1=O [d4T, 2′,3′-didehydro-2′,3′-dideoxythymidine]",CC50 at 48 h,[6],> 200000 nM
same,EC50,[1]; [7],5820 nM
same,EC50,[1]; [8],528 nM
same,EC50,[1]; [9],2710 nM
same,EC50,[1]; [10],801 nM
same,Fold (EC50 HD206/7AA vs SAMHD1),[1]; U937 PMA+,11 fold
same,Fold (EC50 HD206/7AA vs SAMHD1),[1]; U937 PMA−,3 fold
same,CC50 at 48 h,[2],> 200000 nM
same,CC50,[3],> 200000 nM
same,CC50 at 48 h,[4],> 200000 nM
same,EC50,[5]; [12],3950 nM
same,EC50,[5]; [13],6210 nM
same,EC50,[5]; [14],7040 nM
same,EC50,[5]; [15],6550 nM
same,fold increase of anti-HIV-1 activity in PMA+ over PMA− cells,[5]; THP-1,2 fold
same,"SI, selectivity index CC50/EC50",[5]; THP-1 PMA+,> 51
same,"SI, selectivity index CC50/EC50",[5]; THP-1 PMA−,> 32
same,"SI, selectivity index CC50/EC50",[5]; U937 PMA+,> 28
same,"SI, selectivity index CC50/EC50",[5]; U937 PMA−,> 31

# — publication PMC5318888, “SAMHD1 enhances nucleoside-analogue efficacy against HIV-1 in myeloid cells” (Scientific Reports, 2017)
